{
  "source": "paper PMC6697623",
  "about": "(2019)",
  "test_system": "Corn wild type (RNA 1) (RNA, aptamer) GGCGCGAGGAAGGAGGUCUGAGGAGGUCACUGCGCC",
  "assay": "fluorescence titration, RNA varied",
  "settings": "100 mM KCl, 10 mM MgCl2; pH 7.5, 20 °C; 2.5 μM TO",
  "data": [
    {"smiles": "CN1C(=Cc2cc[n+](C)c3ccccc23)Sc2ccccc21", "values": [
      {"measurement": "apparent Kd", "value": 1400, "unit": "nM"}
    ]}
  ]
}
